Data from patent US20210093625A1, “COMBINATION THERAPY” (Celleron Therapeutics Limited, priority 2019, published 2021).

Experiments:
HDAC1 = HDAC1 (Homo sapiens, UniProt Q13547); assay: HDAC1 inhibition; type: biochemical
HDAC2 = HDAC2 (Homo sapiens, UniProt Q92769); assay: HDAC2 inhibition; type: biochemical
HDAC3 = HDAC3 (Homo sapiens, UniProt O15379); assay: HDAC3 inhibition; type: biochemical
SW620 cells [1] = assay: RNA-seq of SW620 cells; type: cell-based, human
Method: We performed RNA-seq on polyA-enriched RNA to assess the effect of CXD101 on the global transcript profile in SW620 cells compared to the vehicle-alone (DMSO) treatment (18). The FASTQ data were aligned to the reference human genome (hg19) with STAR aligner and analysed for differential expression using Bioconductor and DESeq2 R suite (19). The sequencing data were of high quality with on average 92% of the reads able to be mapped to the genome (FIG. 1b).
(§1) SW620 cells were seeded into 6-well plates and left to adhere overnight. Cells were treated with 1 μM, 10 μM of CXD101 for 48 h. CT26 cells were seeded onto 100 mm plates and treated with 2.7 μM and 10 μM CXD101 for 72 h. After treatment cells were harvested and total RNA extracted by means of Promega ReliaPrepμ RNA Cell Miniprep System (Promega, USA). RNA was dissolved in RNAse free water and stored in −80° C. for future analysis. RNA concentration was measured by NanoDrop 2000 (Thermo Fisher Scientific, USA). Samples were qualified for library preparation if […]. Library preparation with poly (A) enrichment was performed by BGI.
(§2) FASTQ files for CXD101 and DMSO treated samples in three biological replicates were trimmed to remove adapters and low-quality bases with TrimGalore v.0.4.3(http://www.bioinformatics.babraham.ac.uk/projects/trim_galore/). The trimmed reads were aligned to the human reference genome (build hg19) with STAR aligner v.2.7 with two mismatches allowed. Differential gene expression analysis was done with the Bioconductor framework (v.3.8) and DESeq2 R package v.1.22, using read count data provided by the aligner. Genes were considered differentially expressed if the adjusted P, calculated using the Benjamini-Hochberg method in order to minimise the false discovery rate, was less than 0.01 (1%) and the change in expression level was greater than ˜2-fold as compared to DMSO control (e.g. |log_2(expression fold change) |>1).

SW620 cells [2] = assay: qPCR of single genes in SW620 cells; type: cell-based, human; conditions: control gene, FIG. 3
Method: Total RNA purified from DMSO- or CXD101treated cells was transcribed into cDNA according to the manufacturer's instructions (iScript cDNA Synthesis Kit, Bio-Rad, USA). qPCR was conducted according to the manufacturer's protocol (SsoAdvanced Universal SYBR Green Supermix, Bio-Rad Laboratories, USA) on CFX Connect Real-Time System thermocycler (Bio-Rad Laboratories, USA).

colon26 cells = assay: RNAseq of colon26 cells in vitro; type: cell-based, mouse; conditions: for differentially expressed genes that are immune-related: out of 1142 DEGs
Source text: The RNAseq data was aligned to the reference M.musculus genome (mm10) with STAR aligner and analysed for differential expression. […] Out of 1142 differentially expressed genes identified following CXD101 treatment, 36% (416) were immune-related when analysed using the immunogenicity database (ref), and 34% (388) and 15% (176) when analysed with Import and Immunome databases (ref). We further evaluated transcripts identified in the colon26 RNAseq at the single gene level, focussing on murine genes which are homologues of the immune-related genes identified in human SW620 cells, which included genes in the murine MHC H2 complex. A number of H2 genes including class I and class II genes were induced including H2-D1, DMA, DMB1 and EB1 (FIG. 6).
as §1, §2

colon26 tumours = assay: RNAseq of colon26 tumours; type: in vivo, Balb/c mice; conditions: log2FC >1 and FDR <1%
Method: To assess gene expression in tumours that were growing in vivo, we evaluated the effect of CXD101 in the syngeneic colon26 colon carcinoma model in tumours grown subcutaneously in Balb/c mice, with CXD101 given orally for two 5-day consecutive periods and performed RNAseq on RNA purified from the tumours. Formalin-fixed paraffin-embedded samples were also prepared to assess by immunohistochemistry (IHC) the tumour micro-environment.
The effect was dose-dependent, as more tumour-inhibition occurred with a higher dose of CXD101 (50 mg/kg compared to 15 mg/kg). […] We performed RNA seq on polyA-enriched RNA prepared from the tumours. In a similar way to the analysis of colon26 in vitro, the RNAseq data was aligned to the reference M.musculus genome (mm10) with STAR aligner and analysed for differential expression.

physchem = conditions: 25 °C, aqueous buffer
[3] = human patients, cited from earlier work
[4] = colon26 cells in vitro, log2 FC >1 and FDR <1%

Sequence of HDAC2 (Q92769 whole entry, species assumed): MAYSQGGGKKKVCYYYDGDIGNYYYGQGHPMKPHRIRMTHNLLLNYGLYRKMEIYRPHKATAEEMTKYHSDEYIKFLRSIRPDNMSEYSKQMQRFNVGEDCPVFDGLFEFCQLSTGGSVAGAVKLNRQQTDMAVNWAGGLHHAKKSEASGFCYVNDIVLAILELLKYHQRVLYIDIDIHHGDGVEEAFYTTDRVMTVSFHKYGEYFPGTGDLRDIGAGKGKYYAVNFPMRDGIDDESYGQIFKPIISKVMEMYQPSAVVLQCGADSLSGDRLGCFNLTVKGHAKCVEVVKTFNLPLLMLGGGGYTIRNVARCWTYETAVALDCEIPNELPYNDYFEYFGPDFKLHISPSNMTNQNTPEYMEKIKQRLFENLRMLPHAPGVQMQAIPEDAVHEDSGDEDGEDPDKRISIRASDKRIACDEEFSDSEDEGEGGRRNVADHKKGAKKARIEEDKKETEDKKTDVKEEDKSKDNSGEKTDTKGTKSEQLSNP
Sequence of HDAC3 (O15379 whole entry, species assumed): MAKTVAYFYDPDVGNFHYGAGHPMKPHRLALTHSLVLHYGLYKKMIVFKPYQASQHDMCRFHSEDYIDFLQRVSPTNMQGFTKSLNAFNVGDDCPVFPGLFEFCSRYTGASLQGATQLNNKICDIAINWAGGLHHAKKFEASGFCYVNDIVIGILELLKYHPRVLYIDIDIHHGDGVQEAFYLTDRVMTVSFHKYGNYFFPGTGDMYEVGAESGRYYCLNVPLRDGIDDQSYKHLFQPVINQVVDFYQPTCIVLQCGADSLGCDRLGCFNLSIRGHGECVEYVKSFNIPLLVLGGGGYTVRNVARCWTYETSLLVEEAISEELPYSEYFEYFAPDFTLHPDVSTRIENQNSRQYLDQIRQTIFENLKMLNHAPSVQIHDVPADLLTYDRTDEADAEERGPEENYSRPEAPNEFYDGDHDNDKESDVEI
Sequence of HDAC3 (Q9Y618 395-489 partner limits assumed, species assumed): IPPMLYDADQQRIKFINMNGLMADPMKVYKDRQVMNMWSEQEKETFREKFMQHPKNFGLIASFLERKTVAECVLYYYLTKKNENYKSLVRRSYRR
Sequence of HDAC1 (Q13547 whole entry, species assumed): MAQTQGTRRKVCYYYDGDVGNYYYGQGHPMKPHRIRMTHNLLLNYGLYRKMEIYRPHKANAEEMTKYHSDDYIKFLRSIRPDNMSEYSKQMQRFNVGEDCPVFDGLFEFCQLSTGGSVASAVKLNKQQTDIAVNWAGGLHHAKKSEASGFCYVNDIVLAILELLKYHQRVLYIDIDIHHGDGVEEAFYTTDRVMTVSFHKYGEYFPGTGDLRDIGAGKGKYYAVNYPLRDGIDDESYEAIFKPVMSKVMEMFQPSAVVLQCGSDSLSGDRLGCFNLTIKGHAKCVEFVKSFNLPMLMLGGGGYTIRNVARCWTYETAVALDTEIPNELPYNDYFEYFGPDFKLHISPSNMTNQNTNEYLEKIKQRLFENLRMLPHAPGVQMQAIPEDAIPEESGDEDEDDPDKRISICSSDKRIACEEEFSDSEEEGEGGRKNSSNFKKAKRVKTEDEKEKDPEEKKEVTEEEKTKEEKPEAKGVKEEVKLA

Structure (SMILES): Cc1nn(C)cc1CN1CCC(c2ccc(C(=O)Nc3ccccc3N)cc2)CC1 [CXD101, N-(2-aminophenyl)-4-(1-[(1,3-dimethyl-1H-pyrazol-4-yl)methyl]piperidin-4yl)benzamide]
- IC50 (HDAC1): 63 nM
- IC50 (HDAC2): 570 nM
- IC50 (HDAC3): 550 nM
- proportion of DEGs down-regulated (SW620 cells [1]; SW620): 30%
- proportion of DEGs up-regulated (SW620 cells [1]; SW620): 70%
- number of differentially expressed transcripts (DEGs) (SW620 cells [1]; SW620, log2 FC >1 and FDR <1%, vs DMSO): about 2500
- expression of REPIN1 (SW620 cells [2]): no effect
- genes down-regulated (colon26 cells; [4]): 611
- genes up-regulated (colon26 cells; [4]): 1891
- size of DEG set in vitro (colon26 cells; colon26 cells, log2FC >1 and FDR <1%): 2502
- differentially expressed genes that are immune-related (colon26 cells; Immunome database): 15%
- differentially expressed genes that are immune-related (colon26 cells; Import database): 34%
- differentially expressed genes that are immune-related (colon26 cells; immunogenicity database): 36%
- size of DEG set in vivo (colon26 tumours): 1141
- solubility (physchem): ≥ 500 µg/mL
- MTD ([3]; for 5 days in a 3-weekly cycle): 20 mg B.D.
- safety profile [3]: favourable safety profile
